# Measured values: ChEMBL document CHEMBL2413072, “Synthesis and in vitro anticancer studies of novel C-2 arylidene congeners of lantadenes” (2013)
# Experiments:
# Type in all cases: functional
# HCT-15 [1] = experiment: Growth inhibition of human HCT15 cells by sulforhodamine B assay
# NCI-H522 [2] = experiment: Growth inhibition of human NCI-H522 cells by sulforhodamine B assay
# NCI-H226 = experiment: Growth inhibition of human NCI-H226 cells by sulforhodamine B assay
# SR [3] = experiment: Growth inhibition of human SR cells by sulforhodamine B assay
# SK-MEL-28 [4] = experiment: Growth inhibition of human SK-MEL-28 cells assessed as cell growth at 10^-8 M by sulforhodamine B assay; conditions: read-out: Activity
# Malme-3M = experiment: Growth inhibition of human MALME-3M cells assessed as cell growth at 10^-8 M by sulforhodamine B assay; conditions: read-out: Activity
# U-251 [5] = experiment: Growth inhibition of human U251 cells assessed as cell growth at 10^-8 M by sulforhodamine B assay; conditions: read-out: Activity
# SNB-19 = experiment: Growth inhibition of human SNB19 cells assessed as cell growth at 10^-8 M by sulforhodamine B assay; conditions: read-out: Activity
# SW-620 = experiment: Growth inhibition of human SW620 cells assessed as cell growth at 10^-8 M by sulforhodamine B assay; conditions: read-out: Activity
# SR [6] = experiment: Growth inhibition of human SR cells assessed as cell growth at 10^-8 M by sulforhodamine B assay; conditions: read-out: Activity
# T47D = experiment: Growth inhibition of human T47D cells by sulforhodamine B assay
# SK-MEL-28 [7] = experiment: Growth inhibition of human SK-MEL-28 cells by sulforhodamine B assay
# MDA-MB-435 = experiment: Growth inhibition of human MDA-MB-435 cells by sulforhodamine B assay
# TK-10 = experiment: Growth inhibition of human TK10 cells assessed as cell growth at 10^-4 M by sulforhodamine B assay; conditions: read-out: Activity
# SN12C [8] = experiment: Growth inhibition of human SN12C cells assessed as cell growth at 10^-4 M by sulforhodamine B assay; conditions: read-out: Activity
# OVCAR-3 = experiment: Growth inhibition of human OVCAR3 cells assessed as cell growth at 10^-4 M by sulforhodamine B assay; conditions: read-out: Activity
# SK-MEL-5 = experiment: Growth inhibition of human SK-MEL-5 cells assessed as cell growth at 10^-4 M by sulforhodamine B assay; conditions: read-out: Activity
# SK-MEL-28 [9] = experiment: Growth inhibition of human SK-MEL-28 cells assessed as cell growth at 10^-4 M by sulforhodamine B assay; conditions: read-out: Activity
# U-251 [10] = experiment: Growth inhibition of human U251 cells assessed as cell growth at 10^-4 M by sulforhodamine B assay; conditions: read-out: Activity
# HT-29 [11] = experiment: Growth inhibition of human HT-29 cells assessed as cell growth at 10^-4 M by sulforhodamine B assay; conditions: read-out: Activity
# RPMI-8226 = experiment: Growth inhibition of human RPMI8226 cells assessed as cell growth at 10^-4 M by sulforhodamine B assay; conditions: read-out: Activity
# HL-60(TB) = experiment: Growth inhibition of human HL-60(TB) cells assessed as cell growth at 10^-4 M by sulforhodamine B assay; conditions: read-out: Activity
# BT-549 [12] = experiment: Growth inhibition of human BT549 cells assessed as cell growth at 10^-6 M by sulforhodamine B assay; conditions: read-out: Activity
# SN12C [13] = experiment: Growth inhibition of human SN12C cells assessed as cell growth at 10^-6 M by sulforhodamine B assay; conditions: read-out: Activity
# HCT-15 [14] = experiment: Growth inhibition of human HCT15 cells assessed as cell growth at 10^-6 M by sulforhodamine B assay; conditions: read-out: Activity
# HCT-116 = experiment: Growth inhibition of human HCT116 cells assessed as cell growth at 10^-6 M by sulforhodamine B assay; conditions: read-out: Activity
# [15] = Growth inhibition of human HCC2998 cells assessed as cell growth at 10^-6 M by sulforhodamine B assay; conditions: HCC 2998, read-out: Activity
# NCI-H522 [16] = experiment: Growth inhibition of human NCI-H522 cells assessed as cell growth at 10^-6 M by sulforhodamine B assay; conditions: read-out: Activity
# MOLT-4 = experiment: Growth inhibition of human MOLT4 cells assessed as cell growth at 10^-6 M by sulforhodamine B assay; conditions: read-out: Activity
# SK-OV-3 = experiment: Growth inhibition of human SKOV3 cells assessed as cell growth at 10^-7 M by sulforhodamine B assay; conditions: read-out: Activity
# OVCAR-4 = experiment: Growth inhibition of human OVCAR4 cells assessed as cell growth at 10^-7 M by sulforhodamine B assay; conditions: read-out: Activity
# SF-295 = experiment: Growth inhibition of human SF295 cells assessed as cell growth at 10^-7 M by sulforhodamine B assay; conditions: read-out: Activity
# HT-29 [17] = experiment: Growth inhibition of human HT-29 cells assessed as cell growth at 10^-7 M by sulforhodamine B assay; conditions: read-out: Activity
# HOP-92 = experiment: Growth inhibition of human HOP92 cells assessed as cell growth at 10^-7 M by sulforhodamine B assay; conditions: read-out: Activity
# MDA-MB-468 = experiment: Growth inhibition of human MDA-MB-468 cells assessed as cell growth at 10^-8 M by sulforhodamine B assay; conditions: read-out: Activity
# BT-549 [18] = experiment: Growth inhibition of human BT549 cells assessed as cell growth at 10^-8 M by sulforhodamine B assay; conditions: read-out: Activity
# [19] = Growth inhibition of human Hs 578T cells assessed as cell growth at 10^-8 M by sulforhodamine B assay; conditions: read-out: Activity
# MCF7 = experiment: Growth inhibition of human MCF7 cells assessed as cell growth at 10^-8 M by sulforhodamine B assay; conditions: read-out: Activity
# RXF 393 = experiment: Growth inhibition of human RXF393 cells assessed as cell growth at 10^-8 M by sulforhodamine B assay; conditions: read-out: Activity
# OVCAR-8 = experiment: Growth inhibition of human OVCAR8 cells assessed as cell growth at 10^-8 M by sulforhodamine B assay; conditions: read-out: Activity
# OVCAR-5 = experiment: Growth inhibition of human OVCAR5 cells assessed as cell growth at 10^-8 M by sulforhodamine B assay; conditions: read-out: Activity
# [20] = read-out: LC50 (the source's name)
# [21] = read-out: pLC50 (the source's name) (converted)
smiles,measurement,setting,value
CC1(C)C[C@@H](O)[C@]2(C(=O)O)CC[C@]3(C)C(=CC[C@@H]4[C@@]5(C)C/C(=C\C=C\c6ccccc6)C(=O)C(C)(C)[C@@H]5CC[C@]43C)[C@@H]2C1,GI50,HCT-15 [1]; read-out: GI50,3.22 µM
same,LC50 (50% lethal concentration),HCT-15 [1]; read-out: LC50,45.1 µM
same,TGI,HCT-15 [1]; read-out: TGI,11.9 µM
same,GI50,HCT-15 [1]; read-out: pGI50 (converted),3.24 µM
same,LC50 (50% lethal concentration),HCT-15 [1]; read-out: pLC50 (converted),44.7 µM
same,TGI,HCT-15 [1]; read-out: pTGI (converted),12 µM
same,GI50,NCI-H522 [2]; read-out: GI50,2.46 µM
same,CC50,NCI-H522 [2]; [20],29.4 µM
same,TGI,NCI-H522 [2]; read-out: TGI,6.9 µM
same,GI50,NCI-H522 [2]; read-out: pGI50 (converted),2.45 µM
same,CC50,NCI-H522 [2]; [21],29.5 µM
same,TGI,NCI-H522 [2]; read-out: pTGI (converted),6.92 µM
same,GI50,NCI-H226; read-out: GI50,2.78 µM
same,LC50,NCI-H226; read-out: LC50,56.2 µM
same,TGI,NCI-H226; read-out: TGI,12.8 µM
same,GI50,NCI-H226; read-out: pGI50 (converted),2.75 µM
same,LC50,NCI-H226; read-out: pLC50 (converted),56.2 µM
same,TGI,NCI-H226; read-out: pTGI (converted),12.9 µM
same,GI50,SR [3]; read-out: GI50,2.48 µM
same,CC50,SR [3]; [20],> 100 µM
same,TGI,SR [3]; read-out: TGI,6.91 µM
same,GI50,SR [3]; read-out: pGI50 (converted),2.45 µM
same,CC50,SR [3]; [21],> 100 µM
same,TGI,SR [3]; read-out: pTGI (converted),6.92 µM
same,growth at 0.01 µM,SK-MEL-28 [4],99%
same,growth at 0.01 µM,Malme-3M,92%
same,growth at 0.01 µM,U-251 [5],92%
same,growth at 0.01 µM,SNB-19,94%
same,growth at 0.01 µM,SW-620,99%
same,growth at 0.01 µM,SR [6],107%
same,GI50,T47D; read-out: GI50,3.83 µM
same,CC50,T47D; [20],> 100 µM
same,TGI,T47D; read-out: TGI,18.4 µM
same,GI50,T47D; read-out: pGI50 (converted),3.8 µM
same,CC50,T47D; [21],> 100 µM
same,TGI,T47D; read-out: pTGI (converted),18.2 µM
same,GI50,SK-MEL-28 [7]; read-out: GI50,4.37 µM
same,CC50,SK-MEL-28 [7]; [20],51.8 µM
same,TGI,SK-MEL-28 [7]; read-out: TGI,17 µM
same,GI50,SK-MEL-28 [7]; read-out: pGI50 (converted),4.37 µM
same,CC50,SK-MEL-28 [7]; [21],51.3 µM
same,TGI,SK-MEL-28 [7]; read-out: pTGI (converted),17 µM
same,GI50,MDA-MB-435; read-out: GI50,3.28 µM
same,CC50,MDA-MB-435; [20],> 100 µM
same,TGI,MDA-MB-435; read-out: TGI,14.4 µM
same,GI50,MDA-MB-435; read-out: pGI50 (converted),3.31 µM
same,CC50,MDA-MB-435; [21],> 100 µM
same,TGI,MDA-MB-435; read-out: pTGI (converted),14.5 µM
same,growth at 100 µM,TK-10,-86%
same,growth at 100 µM,SN12C [8],-92%
same,growth at 100 µM,OVCAR-3,-90%
same,growth at 100 µM,SK-MEL-5,-99%
same,growth at 100 µM,SK-MEL-28 [9],-80%
same,growth at 100 µM,U-251 [10],-79%
same,growth at 100 µM,HT-29 [11],-83%
same,growth at 100 µM,RPMI-8226,-6%
same,growth at 100 µM,HL-60(TB),-40%
same,growth at 1 µM,BT-549 [12],100%
same,growth at 1 µM,SN12C [13],91%
same,growth at 1 µM,HCT-15 [14],95%
same,growth at 1 µM,HCT-116,90%
same,growth at 1 µM,[15],108%
same,growth at 1 µM,NCI-H522 [16],94%
same,growth at 1 µM,MOLT-4,89%
same,growth at 0.1 µM,SK-OV-3,102%
same,growth at 0.1 µM,OVCAR-4,96%
same,growth at 0.1 µM,SF-295,98%
same,growth at 0.1 µM,HT-29 [17],100%
same,growth at 0.1 µM,HOP-92,90%
same,growth at 0.01 µM,MDA-MB-468,95%
same,growth at 0.01 µM,BT-549 [18],101%
same,growth at 0.01 µM,[19],97%
same,growth at 0.01 µM,MCF7,95%
same,growth at 0.01 µM,RXF 393,94%
same,growth at 0.01 µM,OVCAR-8,95%
same,growth at 0.01 µM,OVCAR-5,103%
